# Experimental data: PubChem BioAssay AID2060513 (Molecular Pharmacology Branch, DTP, NCI, 2025)
# System: 299254-011-R-J1-PDC complex spheroids viability
# Assay: Anticancer human tumor 299254-011-R-J1-PDC patient-derived melanoma cell line growth inhibition [GQUAD]
# Conditions: for IC50: curve of first compound; for viability, T/C: stronger effect = lower value
# Procedure, shortened: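 Multi-cell-type spheroids of tumor cells with HUVEC and mesenchymal stem cells, treated with drug combinations. Concentrations descend in half-log steps from near clinical Cmax, or from 10 microM where Cmax is unknown; viability read-out.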
# [1] = second compound 0.0316 µM, first compound 0.000999 µM
# [2] = second compound 0.0316 µM, first compound 0.00316 µM
# [3] = second compound 0.0316 µM, first compound 0.00999 µM
# [4] = second compound 0.0316 µM, first compound 0.0316 µM
# [5] = second compound 0.0316 µM, first compound 0.0999 µM
# [6] = second compound 0.0316 µM, first compound 0.316 µM
# [7] = second compound 0.1 µM, first compound 0.000999 µM
# [8] = second compound 0.1 µM, first compound 0.00316 µM
# [9] = second compound 0.1 µM, first compound 0.00999 µM
# [10] = second compound 0.1 µM, first compound 0.0316 µM
# [11] = second compound 0.1 µM, first compound 0.0999 µM
# [12] = second compound 0.1 µM, first compound 0.316 µM
# [13] = second compound 0.316 µM, first compound 0.000999 µM
# [14] = second compound 0.316 µM, first compound 0.00316 µM
# [15] = second compound 0.316 µM, first compound 0.00999 µM
# [16] = second compound 0.316 µM, first compound 0.0316 µM
# [17] = second compound 0.316 µM, first compound 0.0999 µM
# [18] = second compound 0.316 µM, first compound 0.316 µM
# [19] = second compound 1 µM, first compound 0.000999 µM
# [20] = second compound 1 µM, first compound 0.00316 µM
# [21] = second compound 1 µM, first compound 0.00999 µM
# [22] = second compound 1 µM, first compound 0.0316 µM
# [23] = second compound 1 µM, first compound 0.0999 µM
# [24] = second compound 1 µM, first compound 0.316 µM
# [25] = second compound 3.16 µM, first compound 0.000999 µM
# [26] = second compound 3.16 µM, first compound 0.00316 µM
# [27] = second compound 3.16 µM, first compound 0.00999 µM
# [28] = second compound 3.16 µM, first compound 0.0316 µM
# [29] = second compound 3.16 µM, first compound 0.0999 µM
# [30] = second compound 3.16 µM, first compound 0.316 µM
# [31] = second compound 10 µM, first compound 0.000999 µM
# [32] = second compound 10 µM, first compound 0.00316 µM
# [33] = second compound 10 µM, first compound 0.00999 µM
# [34] = second compound 10 µM, first compound 0.0316 µM
# [35] = second compound 10 µM, first compound 0.0999 µM
# [36] = second compound 10 µM, first compound 0.316 µM
# 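Also: spheroids exposed to the agents for seven days before readout.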
# 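For viability, T/C in this document: percent viability relative to DMSO vehicle control wells = 100%.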
smiles,measurement,setting,value
CC[C@@]1(O)C(=O)OCc2c1cc1n(c2=O)Cc2cc3c(CN(C)C)c(O)ccc3nc2-1 + Cc1[nH]c2ccc(F)cc2c1-c1nc2c3cccnc3c3ncccc3c2[nH]1,IC50,second compound 0.0316 µM,> 316 nM
same,IC50,second compound 0.1 µM,> 316 nM
same,IC50,second compound 0.316 µM,> 316 nM
same,IC50,second compound 1 µM,> 316 nM
same,IC50,second compound 3.16 µM,> 316 nM
same,IC50,second compound 10 µM,> 316 nM
same,"viability, T/C",[1],119%
same,"viability, T/C",[2],92.6%
same,"viability, T/C",[3],102%
same,"viability, T/C",[4],85.8%
same,"viability, T/C",[5],86%
same,"viability, T/C",[6],79.4%
same,"viability, T/C",[7],115%
same,"viability, T/C",[8],105%
same,"viability, T/C",[9],112%
same,"viability, T/C",[10],78.2%
same,"viability, T/C",[11],109%
same,"viability, T/C",[12],74.8%
same,"viability, T/C",[13],86.2%
same,"viability, T/C",[14],88.3%
same,"viability, T/C",[15],89.2%
same,"viability, T/C",[16],106%
same,"viability, T/C",[17],93.2%
same,"viability, T/C",[18],77.7%
same,"viability, T/C",[19],97%
same,"viability, T/C",[20],103%
same,"viability, T/C",[21],98.2%
same,"viability, T/C",[22],101%
same,"viability, T/C",[23],87.2%
same,"viability, T/C",[24],86.9%
same,"viability, T/C",[25],87.2%
same,"viability, T/C",[26],116%
same,"viability, T/C",[27],95%
same,"viability, T/C",[28],111%
same,"viability, T/C",[29],96.8%
same,"viability, T/C",[30],101%
same,"viability, T/C",[31],95%
same,"viability, T/C",[32],97.8%
same,"viability, T/C",[33],85.1%
same,"viability, T/C",[34],85.3%
same,"viability, T/C",[35],116%
same,"viability, T/C",[36],79.8%
CCc1c2c(nc3ccc(O)cc13)-c1cc3c(c(=O)n1C2)COC(=O)[C@]3(O)CC + Cc1[nH]c2ccc(F)cc2c1-c1nc2c3cccnc3c3ncccc3c2[nH]1,IC50,second compound 0.0316 µM,> 316 nM
same,IC50,second compound 0.1 µM,> 316 nM
same,IC50,second compound 0.316 µM,> 316 nM
same,IC50,second compound 1 µM,> 316 nM
same,IC50,second compound 3.16 µM,> 316 nM
same,IC50,second compound 10 µM,> 316 nM
same,"viability, T/C",[1],106%
same,"viability, T/C",[2],88.8%
same,"viability, T/C",[3],73.2%
same,"viability, T/C",[4],73.7%
same,"viability, T/C",[5],79.6%
same,"viability, T/C",[6],66.1%
same,"viability, T/C",[7],108%
same,"viability, T/C",[8],117%
same,"viability, T/C",[9],85.4%
same,"viability, T/C",[10],90.2%
same,"viability, T/C",[11],79.6%
same,"viability, T/C",[12],64.8%
same,"viability, T/C",[13],91.1%
same,"viability, T/C",[14],117%
same,"viability, T/C",[15],69.2%
same,"viability, T/C",[16],84.2%
same,"viability, T/C",[17],88.2%
same,"viability, T/C",[18],70.2%
same,"viability, T/C",[19],105%
same,"viability, T/C",[20],92.7%
same,"viability, T/C",[21],94.2%
same,"viability, T/C",[22],77.5%
same,"viability, T/C",[23],84%
same,"viability, T/C",[24],68.6%
same,"viability, T/C",[25],102%
same,"viability, T/C",[26],114%
same,"viability, T/C",[27],75.7%
same,"viability, T/C",[28],80.7%
same,"viability, T/C",[29],79.9%
same,"viability, T/C",[30],72.2%
same,"viability, T/C",[31],96.1%
same,"viability, T/C",[32],94.4%
same,"viability, T/C",[33],80.7%
same,"viability, T/C",[34],76.8%
same,"viability, T/C",[35],60.1%
same,"viability, T/C",[36],58.8%
COc1cc(C2c3cc4c(cc3C(OC3OC5COC(C)OC5C(O)C3O)C3COC(=O)C23)OCO4)cc(OC)c1O (stereo unspecified) + Cc1[nH]c2ccc(F)cc2c1-c1nc2c3cccnc3c3ncccc3c2[nH]1,IC50,second compound 0.0316 µM,> 10000 nM
same,IC50,second compound 0.1 µM,> 10000 nM
same,IC50,second compound 0.316 µM,> 10000 nM
same,IC50,second compound 1 µM,> 10000 nM
same,IC50,second compound 3.16 µM,> 10000 nM
same,IC50,second compound 10 µM,> 10000 nM
same,"viability, T/C",[4],81.2%
same,"viability, T/C","second compound 0.0316 µM, first compound 0.1 µM",79.1%
same,"viability, T/C",[6],108%
same,"viability, T/C","second compound 0.0316 µM, first compound 1 µM",85%
same,"viability, T/C","second compound 0.0316 µM, first compound 3.16 µM",94.5%
same,"viability, T/C","second compound 0.0316 µM, first compound 10 µM",76.5%
same,"viability, T/C",[10],100%
same,"viability, T/C","second compound 0.1 µM, first compound 0.1 µM",97.5%
same,"viability, T/C",[12],81.2%
same,"viability, T/C","second compound 0.1 µM, first compound 1 µM",76.5%
same,"viability, T/C","second compound 0.1 µM, first compound 3.16 µM",99.2%
same,"viability, T/C","second compound 0.1 µM, first compound 10 µM",80.1%
same,"viability, T/C",[16],100%
same,"viability, T/C","second compound 0.316 µM, first compound 0.1 µM",77.3%
same,"viability, T/C",[18],82.5%
same,"viability, T/C","second compound 0.316 µM, first compound 1 µM",86.9%
same,"viability, T/C","second compound 0.316 µM, first compound 3.16 µM",84.3%
same,"viability, T/C","second compound 0.316 µM, first compound 10 µM",70.5%
same,"viability, T/C",[22],101%
same,"viability, T/C","second compound 1 µM, first compound 0.1 µM",86%
same,"viability, T/C",[24],106%
same,"viability, T/C","second compound 1 µM, first compound 1 µM",87.1%
same,"viability, T/C","second compound 1 µM, first compound 3.16 µM",96.7%
same,"viability, T/C","second compound 1 µM, first compound 10 µM",72.2%
same,"viability, T/C",[28],99.9%
same,"viability, T/C","second compound 3.16 µM, first compound 0.1 µM",84.9%
same,"viability, T/C",[30],89.5%
same,"viability, T/C","second compound 3.16 µM, first compound 1 µM",89.4%
same,"viability, T/C","second compound 3.16 µM, first compound 3.16 µM",89.5%
same,"viability, T/C","second compound 3.16 µM, first compound 10 µM",95%
same,"viability, T/C",[34],89.7%
same,"viability, T/C","second compound 10 µM, first compound 0.1 µM",83%
same,"viability, T/C",[36],95.3%
same,"viability, T/C","second compound 10 µM, first compound 1 µM",86.1%
same,"viability, T/C","second compound 10 µM, first compound 3.16 µM",96.2%
same,"viability, T/C","second compound 10 µM, first compound 10 µM",56.5%
